Source: patent US20250320206A1, “STAT6 DEGRADERS” (Gilead Sciences, Inc., priority 2024, published 2025)

Target: T1, STAT6 (Homo sapiens, UniProt P42226)
T1 construct: These cells express endogenous STAT6; host or cells: HeLa LgBiT clone 4.14
T1 sequence (P42226 1-847): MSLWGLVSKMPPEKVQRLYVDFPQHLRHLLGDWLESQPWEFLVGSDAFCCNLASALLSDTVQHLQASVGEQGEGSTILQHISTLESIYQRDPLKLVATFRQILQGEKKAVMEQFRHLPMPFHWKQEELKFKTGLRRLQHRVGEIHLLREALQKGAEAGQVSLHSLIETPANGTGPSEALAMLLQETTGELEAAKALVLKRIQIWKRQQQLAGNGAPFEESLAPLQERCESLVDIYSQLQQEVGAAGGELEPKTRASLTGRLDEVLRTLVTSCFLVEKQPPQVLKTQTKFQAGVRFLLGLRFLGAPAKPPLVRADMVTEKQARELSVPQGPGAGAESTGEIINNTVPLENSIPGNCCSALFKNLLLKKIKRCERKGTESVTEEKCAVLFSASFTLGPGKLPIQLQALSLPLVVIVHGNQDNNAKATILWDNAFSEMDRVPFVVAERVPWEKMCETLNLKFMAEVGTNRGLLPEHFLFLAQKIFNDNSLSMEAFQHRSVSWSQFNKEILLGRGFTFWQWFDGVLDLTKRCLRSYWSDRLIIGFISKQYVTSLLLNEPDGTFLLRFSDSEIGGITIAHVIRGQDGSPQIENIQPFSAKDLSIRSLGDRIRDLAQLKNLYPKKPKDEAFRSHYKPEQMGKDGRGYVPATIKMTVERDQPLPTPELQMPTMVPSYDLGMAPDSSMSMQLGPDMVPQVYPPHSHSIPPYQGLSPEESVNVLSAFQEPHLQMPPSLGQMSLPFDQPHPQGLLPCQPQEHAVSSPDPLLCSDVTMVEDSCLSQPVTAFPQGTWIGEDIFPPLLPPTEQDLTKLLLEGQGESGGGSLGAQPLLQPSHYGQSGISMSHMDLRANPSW
Experiment: Stat6 Degrader Assay (HiBiT based, HeLa LgBiT clone 4.14)
Format: cell-based
Conditions: HeLa LgBiT clone 4.14 HiBiT-STAT6, 4-24 h incubation; read-out: STAT6 degradation Emax
Experimental: This was a HiBit based assay. A HeLa cell line stably transfected with a small protein, LgBit (Large Bit) was obtained from Promega. These cells express endogenous STAT6. A small 11 amino acid gene sequence (HiBiT) was inserted in the STAT6 gene using CRISPR technology. Once STAT6 protein is expressed in the cells, the HiBiT sequence will bind the LgBit in the cells resulting in a functional NanoBiT protein, giving a luminescent tag to STAT6, see FIG. 2.
Single cell clones were prepared and the clone 4.14 was selected for the assay based on that clone showing high luminescence, high STAT6 phosphorylation upon stimulation with IL-4, and inhibition of luminescence when cells were treated with STAT6 siRNA.
HeLa LgBiT clone 4.14 cells were suspended in DMEM with 10% FCS, 1% Pen/Strep, Na-pyrovate and Hygromycin B, at a concentration of 1.25*105 cells pr mL. 5000 cells were added pr well of a 384 well plate and 20 nL of compound was added by Echo® liquid handler. NN6394A (terfenadine, a toxic compound) was added to control wells at 50 μM concentration to establish the assay window. In these wells the cells are dead which equals 100% degradation of STAT6.
After 4-24 h of incubation at 37° C. under 5% CO2/95% air, 5 μL substrate (Nano-GLO®) was added to the wells and the plates were centrifuged and incubated for 0.5 h.
The luminescence in the wells as a measure of non-degraded STAT6 was measured in a plate reader (BMG Pherastar FSX).
The dose-response curves for Examples 3u208, 3u246, 3u118, 3u119, 3u120, and 3u74 are shown in FIG. 1 (where percent degradation is plotted vs. test compound concentration in M on a log-scale).

| SMILES | Emax |
| --- | --- |
| CNc1cc(=O)n(-c2ccnc3c2cc([C@H](C)N2CC=C(c4c(C)cc(C(=O)N5CCC(CN6CCN(c7ccc8c(c7)n(C7CCC(=O)NC7=O)c(=O)n8C)CC6)CC5)cc4F)CC2)n3C)cc1F (stereo partly drawn) [Example 3u272, 3-(6-(4-((1-(3-fluoro-4-(1-((S)-1-(4-(5-fluoro-4-(methylamino)-2-oxopyridin-1 (2H)-yl)-1-methyl-1H-pyrrolo[2,3-b]pyridin-2-yl)ethyl)-1,2,3,6-tetrahydropyridin-4-yl)-5-methylbenzoyl)piperidin-4-yl)methyl)piperazin-1-yl)-3-methyl-2-oxo-2,3-dihydro-1H-benzo[d]imidazol-1-yl)piperidine-2,6-dione] | < 20% |
| C[C@H](c1cc2c(-n3ccc4[nH]ncc4c3=O)ccnc2n1C)N1CCC(c2ccc(C(=O)N3CCC(CN4CCN(Cc5ccc6c(c5)oc(=O)n6C5CCC(=O)NC5=O)CC4)CC3)cc2)CC1 (stereo partly drawn) [Example 3u265, 3-(6-((4-((1-(4-(1-((R)-1-(1-methyl-4-(4-oxo-1,4-dihydro-5H-pyrazolo[4,3-c]pyridin-5-yl)-1H-pyrrolo[2,3-b]pyridin-2-yl)ethyl)piperidin-4-yl)benzoyl)piperidin-4-yl)methyl)piperazin-1-yl)methyl)-2-oxobenzo[d]oxazol-3 (2H)-yl)piperidine-2,6-dione] | < 20% |
| CNc1ccn(-c2ccnc3c2cc(CN2CCC(c4c(F)cc(C(=O)N5CCC(CN6CCN(c7ccc8c(c7)C7(CC7)C(=O)N8[C@H]7CCC(=O)NC7=O)CC6)CC5)cc4F)CC2)n3C)c(=O)c1 (single isomer, unassigned) [Example 3u151] | 30 to 40% |

Same assay, conditions: HeLa LgBiT clone 4.14 HiBiT-STAT6, 4-24 h incubation; values given for compounds with >80% Emax; geometric mean; read-out: STAT6 degradation DC50

| SMILES | DC50 |
| --- | --- |
| CNc1c(F)cn(-c2ccnc3c2cc([C@H](C)N2CC=C(c4c(C)cc(C(=O)N5CCC(CN6CCN(Cc7ccc8c(c7)C7(CC7)C(=O)N8C7CCC(=O)NC7=O)C[C@@H]6C)CC5)cc4F)CC2)n3C)c(=O)c1F (stereo partly drawn) [Example 3u4, 3-(5′-(((S)-4-((1-(4-(1-((S)-1-(4-(3,5-difluoro-4-(methylamino)-2-oxopyridin-1 (2H)-yl)-1-methyl-1H-pyrrolo[2,3-b]pyridin-2-yl)ethyl)-1,2,3,6-tetrahydropyridin-4-yl)-3-fluoro-5-methyl-benzoyl)-piperidin-4-yl)methyl)-3-methylpiperazin-1-yl)methyl)-2′-oxospiro[cyclopropane-1,3′-indolin]-1′-yl)piperidine-2,6-dione] | 4 nM |
| CNc1ccn(-c2ccnc3c2cc(CN2CCC(c4c(F)cc(C(=O)N5CCC(CN6CCN(Cc7ccc8c(c7)C7(CC7)C(=O)N8C7CCC(=O)NC7=O)C[C@@H]6C)CC5)cc4F)CC2)n3C)c(=O)c1F (stereo partly drawn) [Example 3u84, 3-(5′-(((S)-4-((1-(3,5-difluoro-4-(1-((4-(3-fluoro-4-(methylamino)-2-oxopyridin-1 (2H)-yl)-1-methyl-1H-pyrrolo[2,3-b]pyridin-2-yl)methyl)piperidin-4-yl)benzoyl)piperidin-4-yl)methyl)-3-methylpiperazin-1-yl)methyl)-2′-oxospiro[cyclopropane-1,3′-indolin]-1′-yl)piperidine-2,6-dione] | 26 nM |
| CNc1cc(=O)n(-c2ccnc3c2cc([C@H](C)N2CC=C(c4c(C)cc(C(=O)N(C)c5ccc(C6CCN(Cc7ccc8c(c7)C(C)(C)C(=O)N8[C@H]7CCC(=O)NC7=O)CC6)cc5)cc4F)CC2)n3C)cc1F (single isomer, unassigned) [Example 3u234] | 0.1 nM |
| CNc1cc(=O)n(-c2ccnc3c2cc([C@H](C)N2CC=C(c4c(C)cc(C(=O)N5CCC(CN6CCN(c7ccc8c(c7)n(C7CC7)c(=O)n8C7CCC(=O)NC7=O)CC6)CC5)cc4F)CC2)n3C)cc1F (stereo partly drawn) [Example 3u276, 3-(3-cyclopropyl-5-(4-((1-(3-fluoro-4-(1-((S)-1-(4-(5-fluoro-4-(methylamino)-2-oxopyridin-1 (2H)-yl)-1-methyl-1H-pyrrolo[2,3-b]pyridin-2-yl)ethyl)-1,2,3,6-tetrahydropyridin-4-yl)-5-methyl-benzoyl)piperidin-4-yl)methyl)piperazin-1-yl)-2-oxo-2,3-dihydro-1H-benzo[d]imidazol-1-yl)piperidine-2,6-dione] | 4.3 nM |
| CNc1ccn(-c2ccnc3c2cc([C@H](C)N2CC=C(c4c(C)cc(C(=O)N5CCC(CN6CCN(Cc7cc8c(cc7F)n([C@@H]7CCC(=O)NC7=O)c(=O)n8C7CC7)CC6)CC5)cc4F)CC2)n3C)c(=O)c1 (single isomer, unassigned) [Example 3u105] | 1.4 nM |
| CNc1ccn(-c2ccnc3c2cc([C@H](C)N2CCC(c4c(F)cc(C(=O)N5CCC(CN6CCN(Cc7ccc8c(c7)C(C)(C)C(=O)N8[C@H]7CCC(=O)NC7=O)C[C@@H]6C)CC5)cc4F)CC2)n3C)c(=O)c1 (single isomer, unassigned) [Example 3u81] | 0.8 nM |
| CNc1ccn(-c2ccnc3c2cc(CN2CCC(c4c(F)cc(C(=O)N5CCC(CN6CCN(C(=O)c7ccc8c(c7)n(C)c(=O)n8C7CCC(=O)NC7=O)CC6)CC5)cc4F)CC2)n3C)c(=O)c1 (stereo not drawn) [Example 3u264, 3-(5-(4-((1-(3,5-difluoro-4-(1-((1-methyl-4-(4-(methylamino)-2-oxopyridin-1 (2H)-yl)-1H-pyrrolo[2,3-b]pyridin-2-yl)methyl)piperidin-4-yl)benzoyl)piperidin-4-yl)methyl)piperazine-1-carbonyl)-3-methyl-2-oxo-2,3-dihydro-1H-benzo[d]imidazol-1-yl)piperidine-2,6-dione] | 5.9 nM |
| Cc1cc(C(=O)N2CCC(CN3CCN(Cc4cc5c(cc4F)n([C@@H]4CCC(=O)NC4=O)c(=O)n5C4CC4)CC3)CC2)cc(F)c1C1=CCN([C@@H](C)c2cc3c(-n4ccc5c(c4=O)CCN5)ccnc3n2C)CC1 (single isomer, unassigned) [Example 3u148] | 2.7 nM |
| Cc1cc(C(=O)N2CCC(CN3CCN(Cc4ccc5c(c4)n(C4CC4)c(=O)n5[C@H]4CCC(=O)NC4=O)CC3)CC2)cc(F)c1C1=CCN([C@@H](C)c2cc3c(-n4ccc5c(c4=O)CCN5)ccnc3n2C)CC1 (single isomer, unassigned) [Example 3u142] | 2.4 nM |
| CNc1ccn(-c2ccnc3c2cc([C@H](C)N2CC=C(c4c(C)cc(C(=O)N5CCn6nc(CN7CCN(c8ccc9c(c8)n(C)c(=O)n9C8CCC(=O)NC8=O)CC7)cc6C5)cc4F)CC2)n3C)c(=O)c1 (stereo partly drawn) [Example 3u277, 3-(5-(4-((5-(3-fluoro-5-methyl-4-(1-((S)-1-(1-methyl-4-(4-(methylamino)-2-oxopyridin-1 (2H)-yl)-1H-pyrrolo[2,3-b]pyridin-2-yl)ethyl)-1,2,3,6-tetrahydropyridin-4-yl)benzoyl)-4,5,6,7-tetrahydropyrazolo[1,5-a]pyrazin-2-yl)methyl)piperazin-1-yl)-3-methyl-2-oxo-2,3-dihydro-1H-benzo[d]imidazol-1-yl)piperidine-2,6-dione] | 0.4 nM |
| Cc1cc(C(=O)N2CCC(CN3CCN(Cc4ccc5c(c4)n(C4CC4)c(=O)n5[C@@H]4CCC(=O)NC4=O)C[C@@H]3C)CC2)cc(F)c1C1=CCN([C@@H](C)c2cc3c(-n4ccc5c(c4=O)CCN5)ccnc3n2C)CC1 (single isomer, unassigned) [Example 3u144] | 0.4 nM |
| Cc1cc(C(=O)N2CCC(CN3CCN(Cc4cc5c(cc4F)n([C@@H]4CCC(=O)NC4=O)c(=O)n5C4CC4)C[C@@H]3C)CC2)cc(F)c1C1=CCN([C@@H](C)c2cc3c(-n4ccc5c(c4=O)CCN5)ccnc3n2C)CC1 (single isomer, unassigned) [Example 3u133] | 0.8 nM |
